This note sets out measurements from US12016864B2, “LOX enzyme inhibiting methods and compositions” (ANOVIA BIOSCIENCES, INC., priority 2021, dated 2024).

Type in all cases: biochemical
For test [1], the target named is T1, Bovine lysyl oxidase (LOX) (Bos taurus, UniProt P33072).
T1 construct: from tissue; host or cells: adult bovine tendon
T1 sequence (P33072 170-418): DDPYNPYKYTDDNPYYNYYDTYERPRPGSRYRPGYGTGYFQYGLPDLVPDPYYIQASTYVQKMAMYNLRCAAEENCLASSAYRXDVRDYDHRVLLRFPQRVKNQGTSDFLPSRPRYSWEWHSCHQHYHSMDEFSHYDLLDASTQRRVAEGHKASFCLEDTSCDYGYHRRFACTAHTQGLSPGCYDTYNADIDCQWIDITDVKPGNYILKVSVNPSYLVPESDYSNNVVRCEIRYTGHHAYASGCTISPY
Kind of test: LOX inhibition assay, fluorometric (cadaverine / HRP / Amplex Red). To be noted: LOX extracted from bovine tendon, 30 min preincubation at 37° C., 5 mM cadaverine; for IC50: read-out: Activity Range LOX. The method, then: The ability of compounds to inhibit prototypic LOX was determined using a fluorometric assay. This assay measures the activity of lysyl oxidases by coupling the reaction with horseradish peroxidase-catalyzed […]. The activity assay protocol uses cadaverine as substrate that releases hydrogen peroxide upon transformation by prototypic LOX enzyme present in the sample. Hydrogen peroxide was in turn detected using a red fluorescence substrate for HRP-coupled reactions (Amplex Red Enzyme Assays, Thermo Scientific Fisher). This lead to an increase in fluorescence that can be easily detected at Ex/Em=540/590 nm in a fluorescence microplate
Bovine lysyl oxidase (LOX) was extracted by adapting the methodology from [Kagan et al. 1979 and Borel et al. 2001.] from bovine tendon: Frozen adult bovine tendon was placed in room temperature water to defrost, and then membranes were removed and the remaining tissue cut into 1 cm pieces. The material was first passed through a course mesh meat grinder, and this mince was passed through a fine mesh grinder. The mince was homogenized in 10 v/w of buffer (16 mM sodium phosphate buffer pH 7.8, 400 mM NaCl) using a Waring blender. The homogenate was centrifuged at 15,000×g for 15 min at 4° C. After centrifugation, the supernatant was discarded and the pellets resuspended in 10 volumes of the same buffer. The mixture was blended again and centrifuged with the same settings. This time the pellets were blended in 3 volumes of extraction buffer (16 mM sodium phosphate buffer pH 7.8) and left to incubate at 4° C. for 2 h. After this time, the slurry was centrifuged with the same settings as described above. The supernatant was used in an ultrafiltration step to remove large proteins by size exclusion through a 30 kDalton filter (EMD Millipore). The filtrate was mixed with DEAE Sephadex (GE Healthcare), or passed over a MonoQ FPLC column. After two washes, one in 16 mM sodium phosphate buffer pH 7.8, 380 mM NaCl, and another in 16 mM sodium phosphate buffer pH 7.8, the proteins were eluted with 16 mM sodium phosphate pH 7.8, 10 μM CuSO4, and 4 M urea. Fractions containing Lox activity were collected and stored frozen at −70° C.
Final concentration in the LOX assay is shown in Table 6 below and performed in a total volume of […].
7 μl of freshly prepared reaction buffer were delivered to reaction wells. Compounds were resuspended in 100% DMSO at 10 mM and delivered into buffer using acoustic technology (Echo550; nanoliter range). A 2.85× solution of LOX protein in reaction buffer was prepared (“LOX solution”) and 7 μl of LOX solution was added into the reaction wells. Buffer only was added to column 1 for no protein control. Reactions were incubated for 30 minutes at 37° C. A 3.33× mixture of cadaverine, Amplex Red, and HRP (“Substrate/Detection Mix) was prepared and subsequently 6 μL of the mixture was added to each reaction well. Progress of reactions was monitored for 120 minutes at 37° C. using Clariostar plate reader (ex530-12, ems 600-40). For all activity assays, pan-LOX inhibitor CCT365623 (Tang et al, 2017) and LOXL2/LOXL3 inhibitor PAT-1251 (PharmaKea) were included as standards.
The slope of the linear portion of the progress curve was calculated using Clariostar software. Typical analysis interval was between 20-50 min, but varied between experiments. The background subtracted signals (No protein wells were considered as background) were converted to % activity relative to DMSO controls. Data was analyzed using GraphPad Prism 4 with “sigmoidal dose-response (variable slope)”; 4 parameters with Hill Slope. Constraints: Bottom=Constant equal to 0. Top=Must be less than 120.

The target of test [2] is T2, Recombinant human LOXL2 (lysyl oxidase like 2) (Homo sapiens, UniProt Q9Y4K0).
T2 construct: purchased R&D systems
T2 sequence (Q9Y4K0 26-774): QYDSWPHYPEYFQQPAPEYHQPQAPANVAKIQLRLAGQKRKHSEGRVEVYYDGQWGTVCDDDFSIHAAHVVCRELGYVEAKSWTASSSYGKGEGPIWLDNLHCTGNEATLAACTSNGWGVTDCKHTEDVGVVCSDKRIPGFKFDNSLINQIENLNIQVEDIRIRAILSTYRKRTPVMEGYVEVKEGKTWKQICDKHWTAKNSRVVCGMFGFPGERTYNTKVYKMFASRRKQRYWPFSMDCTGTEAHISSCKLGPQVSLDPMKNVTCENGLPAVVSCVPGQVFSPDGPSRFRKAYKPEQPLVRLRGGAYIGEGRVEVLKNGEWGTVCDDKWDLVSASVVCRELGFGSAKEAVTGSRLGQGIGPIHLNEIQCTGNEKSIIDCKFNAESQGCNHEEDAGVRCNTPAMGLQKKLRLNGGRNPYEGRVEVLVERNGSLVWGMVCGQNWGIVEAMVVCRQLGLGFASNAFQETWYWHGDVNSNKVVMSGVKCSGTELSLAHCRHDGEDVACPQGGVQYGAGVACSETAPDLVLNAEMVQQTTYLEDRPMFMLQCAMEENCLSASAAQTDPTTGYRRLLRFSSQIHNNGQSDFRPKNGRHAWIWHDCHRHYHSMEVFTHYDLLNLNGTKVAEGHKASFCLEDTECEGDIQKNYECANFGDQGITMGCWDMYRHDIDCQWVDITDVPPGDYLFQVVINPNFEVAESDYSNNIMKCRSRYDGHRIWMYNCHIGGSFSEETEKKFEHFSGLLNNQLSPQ
Put plainly: LOXL2 inhibition assay, fluorometric (cadaverine / HRP / Amplex Red). To be noted: recombinant human LOXL2 130 nM; 30 min preincubation at 37° C.; 2.5 mM cadaverine; read-out: Activity Range LOXL2. Here is the method:
(§1) The ability of compounds to inhibit one or more of the lysyl oxidases LOXL2 and/or LOXL3 was determined using a fluorometric assay. This assay measures the activity of lysyl oxidases by coupling the reaction with horseradish peroxidase-catalyzed […]. The activity assay protocol uses cadaverine as substrate that releases hydrogen peroxide upon transformation by the specific LOX family enzyme present in the sample. Hydrogen peroxide is in turn detected using a red fluorescence substrate for HRP-coupled reactions (Amplex Red Enzyme Assays, Thermo Scientific Fisher). This leads to increase in fluorescence that can be easily detected at Ex/Em=540/590 nm in a fluorescence microplate reader.
(§2) Recombinant human LOXL2 (lysyl oxidase like 2) and recombinant human LOXL3 (lysyl oxidase like 3) were purchased from R&D systems and assays were performed in 1.2 M urea, 50 mM sodium borate buffer pH 8.0, and 10 mM CaCl.
(§3) 5 μl of freshly prepared reaction buffer were delivered to reaction wells. Compounds were resuspended in 100% DMSO at 10 mM and delivered into buffer using acoustic technology (Echo550; nanoliter range). A 3× solution of LOXL2 or LOXL3 in reaction buffer was prepared (“enzyme solution”) and 5 μL of enzyme solution was added into the reaction wells. Buffer only was added to column 1 for no protein control. Reactions were incubated for 30 minutes at 37° C. A 3× mixture of cadaverine, Amplex Red, and HRP (“Substrate/Detection Mix) was prepared and subsequently 5 μL of the mixture added to each reaction well. Progress of reactions was monitored for 60 minutes at 37° C. using Clariostar plate reader (ex 530-12, ems 600-40). For all activity assays, pan-LOX inhibitor CCT365623 (Tang et al, 2017) and LOXL2/LOXL3 inhibitor PAT-1251 (PharmaKea) were included as standards.
(§4) For the data analysis, the slope of the linear portion of the progress curve was calculated using Clariostar software. Typical analysis interval was between 8-30 min, but varied between experiments. The background-subtracted signals (No protein wells are considered as background) were converted to % activity relative to DMSO controls. Data was analyzed using GraphPad Prism 4 with “sigmoidal dose-response (variable slope)”; 4 parameters with Hill Slope. Constraints: Bottom=Constant equal to 0. Top=Must be less than 120.

Test [3] addresses T3, Recombinant human LOXL3 (lysyl oxidase like 3) (Homo sapiens, UniProt P58215).
T3 construct: purchased R&D systems
T3 sequence (P58215 26-753): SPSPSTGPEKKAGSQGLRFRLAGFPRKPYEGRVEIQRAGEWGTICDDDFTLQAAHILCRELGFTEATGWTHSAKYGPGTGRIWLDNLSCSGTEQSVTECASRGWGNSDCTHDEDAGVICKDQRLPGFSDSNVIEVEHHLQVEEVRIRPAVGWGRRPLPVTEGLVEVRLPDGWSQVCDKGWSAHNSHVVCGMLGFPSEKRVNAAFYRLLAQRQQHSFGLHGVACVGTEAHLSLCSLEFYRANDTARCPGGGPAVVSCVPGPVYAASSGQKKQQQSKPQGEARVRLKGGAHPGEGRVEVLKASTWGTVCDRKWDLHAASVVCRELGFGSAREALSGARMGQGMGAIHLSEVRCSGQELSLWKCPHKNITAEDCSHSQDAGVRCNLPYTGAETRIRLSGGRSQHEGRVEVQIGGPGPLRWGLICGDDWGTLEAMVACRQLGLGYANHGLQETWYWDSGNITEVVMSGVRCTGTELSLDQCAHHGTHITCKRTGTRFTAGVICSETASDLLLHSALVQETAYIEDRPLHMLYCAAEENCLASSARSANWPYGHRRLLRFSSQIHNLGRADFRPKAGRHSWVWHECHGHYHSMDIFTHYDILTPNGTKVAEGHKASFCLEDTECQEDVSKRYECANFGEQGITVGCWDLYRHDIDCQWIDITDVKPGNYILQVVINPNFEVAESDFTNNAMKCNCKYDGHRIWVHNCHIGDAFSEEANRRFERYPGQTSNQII
Put plainly: LOXL3 inhibition assay, fluorometric (cadaverine / HRP / Amplex Red). To be noted: recombinant human LOXL3 150 nM; 30 min preincubation at 37° C.; 1 mM cadaverine; read-out: Activity Range LOXL3. Here is the method: as §1, §2, §3, §4

Structures are written as SMILES.

For `NCc1ccc(S(=O)(=O)C[C@@H]2C[C@H](c3ccc(F)cc3)CN2S(=O)(=O)N2CCS(=O)(=O)CC2)s1` (racemic) [Example 210, cis-4-((2-(((5-(Aminomethyl)thiophen-2-yl)sulfonyl)methyl)-4-(4-fluorophenyl)pyrrolidin-1-yl)sulfonyl)thiomorpholine 1,1-dioxide 2,2,2-trifluoroacetate], the values for the IC50 in test [1] and in test [2] were 1000 to 30000 nM and at most 500 nM, respectively.
Take `NCc1ccnc(OC[C@@H]2C[C@H](c3ccc(F)cc3)CN2S(=O)(=O)N2CCOCC2)c1` (racemic) [Example 212, cis-(2-((4-(4-Fluorophenyl)-1-(morpholinosulfonyl)pyrrolidin-2-yl)methoxy)pyridin-4-yl)methanamine 2,2,2-trifluoroacetate]: the results for the IC50 in test [1] and in test [2] were 1000 to 30000 nM and at most 500 nM, respectively.
As to `NCc1ccnc(OC[C@@H]2C[C@H](c3ccc(F)cc3)CN2S(=O)(=O)N2CCS(=O)(=O)CC2)c1.O=C(O)C(F)(F)F` (racemic) [Example 214, cis-((2-(((4-(Aminomethyl)pyridin-2-yl)oxy)methyl)-4-(4-fluorophenyl)pyrrolidin-1-yl)sulfonyl)thiomorpholine 1,1-dioxide 2,2,2-trifluoroacetate], in test [1], the “Activity Range LOX” value is on record as “Inactive”. Also, the IC50 in test [2] was at most 500 nM.
Consider `NCc1cccc(OC[C@@H]2C[C@H](c3ccc(F)cc3)CN2S(=O)(=O)N2CCOCC2)c1.O=C(O)C(F)(F)F` (racemic) [Example 216, cis-(3-((4-(4-Fluorophenyl)-1-(morpholinosulfonyl)pyrrolidin-2-yl)methoxy)phenyl)methanamine 2,2,2-trifluoroacetate], for which the “Activity Range LOX” value in test [1] is reported as “Inactive”. Further, the IC50 in test [2] is 500 to 1000 nM.
On to `NCc1cccc(OC[C@@H]2C[C@H](c3ccc(F)cc3)CN2S(=O)(=O)N2CCS(=O)(=O)CC2)c1` (racemic) [Example 218, cis-4-((2-((3-(Aminomethyl)phenoxy)methyl)-4-(4-fluorophenyl)pyrrolidin-1-yl)sulfonyl)thiomorpholine 1,1-dioxide], for which the results for the IC50 in test [1] and in test [2] were 1000 to 30000 nM and at most 500 nM, respectively.
With `NCc1ccnc(OC[C@@H]2C[C@H](C3CCCCC3)CN(S(=O)(=O)N3CCS(=O)(=O)CC3)C2)c1` (racemic) [Example 235, cis-4-((3-(((4-(Aminomethyl)pyridin-2-yl)oxy)methyl)-5-cyclohexylpiperidin-1-yl)sulfonyl)thiomorpholine 1,1-dioxide 2,2,2-trifluoroacetate], the figures for the IC50 in test [3] and in test [2] were 500 to 1000 nM and at most 500 nM, respectively.
Turning to `NCc1ccnc(OC[C@@H]2C[C@H](C3CCCCC3)CN2S(=O)(=O)N2CCOCC2)c1` (relative stereo) [Example 239, cis-(2-((4-Cyclohexyl-1-(morpholinosulfonyl)pyrrolidin-2-yl)methoxy)pyridin-4-yl)methanamine 2,2,2-trifluoroacetate], the IC50 in test [3] and in test [2] was at most 500 nM each time.
Consider `NCc1ccnc(OC[C@@H]2C[C@@H](C3CCCCC3)CN2S(=O)(=O)N2CCOCC2)c1` [Example 239T, trans-(2-((4-Cyclohexyl-1-(morpholinosulfonyl)pyrrolidin-2-yl)methoxy)pyridin-4-yl)methanamine 2,2,2-trifluoroacetate], for which the IC50 in test [3] and in test [2] was at most 500 nM in each case.
